pIC50: −log10 of the molar value.
What follows are compounds tested against biotinylated Avi-POLθ[2-894] (Homo sapiens (Human), UniProt O75417) (assay: POLθ ATPase assay (ADP-Glo)). Conditions: POLθ ATPase, ADP-Glo; n=2; read-out: Biochemical ATPase ADPGlo IC50.
Experimental: In some embodiments, the ATPase assay a compound of the present disclosure is combined with biotinylated Avi-POLθ[2-894], a 50 nucleotide poly-thymine repeat single-stranded DNA, and ATP in buffer. In some embodiments, the mixture is incubated and ADP-Glo Reagent added, followed by a subsequent incubation. In some embodiments, a Kinase Detection Reagent may be added, followed by a third incubation. In some embodiments, the activity is measured via luminescence signal (e.g., measured with the EnVision multimode plate reader). POLθ-mediated ATP hydrolysis was measured using the ADP-Glo Kinase Assay (Promega Corporation, Madison, WI). Reactions were performed in white 384-well small-volume microplates (Greiner Bio-One, Frickenhausen, Germany) using a total volume of 15 μL. The ATPase reaction consisted of 1 nM biotinylated Avi-POLθ[2-894], 5 nM of a 50 nucleotide poly-thymine repeat single-stranded DNA (PolyT(50) ssDNA), and 100 μM ATP in 5 μL of assay buffer (50 mM Tris, pH 7.5, 80 mM KCl, 10 MgCl2, 1 mM DTT, 5% glycerol, 0.01% BSA, 0.01% Tween-20). Inhibition of POLΘATPase activity was determined by preparing 11-point serial dilutions of the test compounds in 100% DMSO, then transferring 30 nL of the compounds into the ATPase reaction using an Echo acoustic liquid handler (Beckman Coulter, Brea, CA). DMSO-treated wells containing either all of the reaction components (1 nM biotinylated Avi-POLθ[2-894], 5 nM PolyT(50) ssDNA, 100 μM ATP) or with assay buffer substituted for the biotinylated Avi-POLθ[2-894](0 nM biotinylated Avi-POLθ[2-894], 5 nM PolyT(50) ssDNA, 100 μM ATP) were used to define the maximum and minimum response in the assay. Following a one-hour incubation at ambient temperature, 5 μL of ADP-Glo Reagent was added to the ATPase reaction, and this mixture was allowed to incubate at ambient temperature for an additional hour. Lastly, 5 μL of Kinase Detection Reagent was added, followed by a third one-hour incubation at ambient temperature. […] Luminescence signal was measured using the EnVision multimode plate reader (Perkin Elmer. Waltham. MA). […] Non-linear regression analysis using the four-parameter logistic equation was conducted on the percent activity values of the compound dose-responses, yielding the AC50 value for each compound. Genedata Screener (Genedata. Basel, Switzerland) was used for the data analysis.

Chain of biotinylated Avi-POLθ[2-894] (O75417 2-894): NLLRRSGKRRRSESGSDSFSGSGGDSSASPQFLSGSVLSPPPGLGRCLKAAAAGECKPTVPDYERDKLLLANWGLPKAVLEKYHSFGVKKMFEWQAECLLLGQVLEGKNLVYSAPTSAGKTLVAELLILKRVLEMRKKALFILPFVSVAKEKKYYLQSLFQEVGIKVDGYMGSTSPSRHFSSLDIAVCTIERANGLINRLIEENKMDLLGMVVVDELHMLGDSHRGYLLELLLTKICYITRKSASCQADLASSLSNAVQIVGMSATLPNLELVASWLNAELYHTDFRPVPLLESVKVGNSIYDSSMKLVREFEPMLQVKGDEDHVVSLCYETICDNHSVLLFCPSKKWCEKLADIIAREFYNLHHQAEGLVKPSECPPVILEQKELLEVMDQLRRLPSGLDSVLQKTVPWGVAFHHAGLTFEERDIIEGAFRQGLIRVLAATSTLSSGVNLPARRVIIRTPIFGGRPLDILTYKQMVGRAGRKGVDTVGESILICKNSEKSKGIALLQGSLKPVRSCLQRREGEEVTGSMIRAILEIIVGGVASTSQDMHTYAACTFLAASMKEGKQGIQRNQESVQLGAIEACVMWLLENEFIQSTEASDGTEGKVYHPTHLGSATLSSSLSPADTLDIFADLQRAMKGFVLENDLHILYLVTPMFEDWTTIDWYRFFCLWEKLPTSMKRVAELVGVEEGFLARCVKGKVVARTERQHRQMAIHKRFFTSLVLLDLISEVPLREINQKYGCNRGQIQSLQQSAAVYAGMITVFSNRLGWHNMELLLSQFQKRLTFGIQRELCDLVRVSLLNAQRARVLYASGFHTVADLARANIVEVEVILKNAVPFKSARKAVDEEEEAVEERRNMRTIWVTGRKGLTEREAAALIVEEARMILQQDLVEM

| pIC50 | Compound |
| --- | --- |
| 7.82 to 9.00 | COc1ccc(C#N)cc1-c1cc(C)ncc1C(=O)Nc1nc2c(s1)CN(C(=O)c1ccc(Cl)c(C(F)F)c1)C2 |
| 7.82 to 9.00 | COc1cnc(C(=O)N2Cc3nc(NC(=O)c4cnc(C)cc4-c4cc(Cl)ncc4OC)sc3C2)nc1 |
| 7.82 to 9.00 | COc1cnc(Cl)cc1-c1cc(C)ncc1C(=O)Nc1nc2c(s1)CN(C(=O)c1ncc(C)n1C)C2 |
| 7.82 to 9.00 | COc1cnc(Cl)cc1-c1cc(C)ncc1C(=O)Nc1nc2c(s1)CN(C(=O)c1ncncc1Cl)C2 |

Same assay, conditions: n=2; read-out: Biochemical ATPase ADPGlo IC50

| Compound | pIC50 |
| --- | --- |
| COc1ccccc1-c1cc(C)ncc1C(=O)Nc1nc2c(s1)CN(C(=O)c1cccnc1)C2 | 6.82 to 7.30 |
| N-(5-(1H-pyrazole-4-carbonyl)-5,6- dihydro-4H-pyrrolo[3,4-d]thiazol-2-yl)- 2′-chloro-5′-methoxy-6-methyl-[4,4′- bipyridine]-3-carboxamide [Example 88] | 7.30 to 7.82 |
| COc1ccccc1-c1cc(C)ncc1C(=O)Nc1nc2c(s1)CN(C(=O)Cn1cccn1)C2 | ≤ 6.05 |
| COc1cnc(Cl)cc1-c1cc(C)ncc1C(=O)Nc1nc2c(s1)CN(C(=O)c1cncn1C)C2 [Example 30, 2′-chloro-5′-methoxy-6-methyl-N-(5-(1-methyl-1H-imidazole-5-carbonyl)-5,6-dihydro-4H-pyrrolo[3,4-d]thiazol-2-yl)-[4,4′-bipyridine]-3-carboxamide] | 7.30 to 7.82 |
| CNC(=O)N1Cc2nc(NC(=O)c3cnc(C)cc3-c3ccccc3OC)sc2C1 | ≤ 6.05 |
| COc1ccccc1-c1cc(C)ncc1C(=O)Nc1nc2c(s1)CN(C(=O)c1cn(C)nn1)C2 | 6.05 to 6.82 |
| COc1cnc(Cl)cc1-c1cc(C)ncc1C(=O)Nc1nc2c(s1)CN(C(=O)c1ncn(C(C)C)n1)C2 [Example 77, 2′-chloro-N-(5-(1-isopropyl-1H-1,2,4-triazole-3-carbonyl)-5,6-dihydro-4H-pyrrolo[3,4-d]thiazol-2-yl)-5′-methoxy-6-methyl-[4,4′-bipyridine]-3-carboxamide] | 7.30 to 7.82 |
| COc1cnc(Cl)cc1-c1cc(C)ncc1C(=O)Nc1nc2c(s1)CN(C(=O)c1c(C(F)F)nn(C)c1F)C2 [Example 59, 2′-chloro-N-(5-(3-(difluoromethyl)-5-fluoro-1-methyl-1H-pyrazole-4-carbonyl)-5,6-dihydro-4H-pyrrolo[3,4-d]thiazol-2-yl)-5′-methoxy-6-methyl-[4,4′-bipyridine]-3-carboxamide] | 7.82 to 9.00 |
| COc1cnc(Cl)cc1-c1cc(C)ncc1C(=O)Nc1nc2c(s1)CN(C(=O)c1cnccn1)C2 [Example 41, 2′-chloro-5′-methoxy-6-methyl-N-(5-(pyrazine-2-carbonyl)-5,6-dihydro-4H-pyrrolo[3,4-d]thiazol-2-yl)-[4,4′-bipyridine]-3-carboxamide] | 7.82 to 9.00 |
| COc1ccc(C#N)cc1-c1cc(C)ncc1C(=O)Nc1nc2c(s1)CN(C(=O)C1CCC1)C2 | 7.82 to 9.00 |
| COc1ccc(C#N)cc1-c1cc(C)ncc1C(=O)Nc1nc2c(s1)CN(S(=O)(=O)c1cccnc1)C2 | 6.82 to 7.30 |
| CCn1nccc1C(=O)N1Cc2nc(NC(=O)c3cnc(C)cc3-c3cc(Cl)ncc3OC)sc2C1 | 7.82 to 9.00 |
| COc1cnc(Cl)cc1-c1cc(C)ncc1C(=O)Nc1nc2c(s1)CN(C(=O)[C@@H]1C[C@H]1CO)C2 [Example 102, 2′-chloro-N-(5-((1R,2R)-2-(hydroxymethyl)cyclopropane-1-carbonyl)-5,6-dihydro-4H-pyrrolo[3,4-d]thiazol-2-yl)-5′-methoxy-6-methyl-[4,4′-bipyridine]-3-carboxamide] | 7.82 to 9.00 |
| COc1ccccc1-c1cc(C)ncc1C(=O)Nc1nc2c(s1)CN(C(=O)C1CCN1C(C)=O)C2 (stereo not shown) | ≤ 6.05 |
| COc1cnc(Cl)cc1-c1cc(C)ncc1C(=O)Nc1nc2c(s1)CN(C(=O)[C@H]1C[C@@](F)(CO)C1)C2 [Example 106, 2′-chloro-N-(5-((1r,3r)-3-fluoro-3-(hydroxymethyl)cyclobutane-1-carbonyl)-5,6-dihydro-4H-pyrrolo[3,4-d]thiazol-2-yl)-5′-methoxy-6-methyl-[4,4′-bipyridine]-3-carboxamide] | 7.82 to 9.00 |
| COc1cnc(Cl)cc1-c1cc(C)ncc1C(=O)Nc1nc2c(s1)CN(C(=O)c1cnn(CC(F)(F)F)c1)C2 [Example 83, 2′-chloro-5′-methoxy-6-methyl-N-(5-(1-(2,2,2-trifluoroethyl)-1H-pyrazole-4-carbonyl)-5,6-dihydro-4H-pyrrolo[3,4-d]thiazol-2-yl)-[4,4′-bipyridine]-3-carboxamide] | 7.30 to 7.82 |
| COc1ccccc1-c1cc(C)ncc1C(=O)Nc1nc2c(s1)CN(C(=O)C1CS(=O)(=O)C1)C2 | 6.05 to 6.82 |
| COc1ccccc1-c1cc(C)ncc1C(=O)Nc1nc2c(s1)CCCC2 | ≤ 6.05 |
| COc1cnc(Cl)cc1-c1cc(C)ncc1C(=O)Nc1nc2c(s1)CN(C(=O)c1cnn(C)c1C)C2 [Example 87, 2′-chloro-N-(5-(1,5-dimethyl-1H-pyrazole-4-carbonyl)-5,6-dihydro-4H-pyrrolo[3,4-d]thiazol-2-yl)-5′-methoxy-6-methyl-[4,4′-bipyridine]-3-carboxamide] | 7.30 to 7.82 |
| COc1cnc(Cl)cc1-c1cc(C)ncc1C(=O)Nc1nc2c(s1)CN(C(=O)c1cn(C)nc1C)C2 (racemic) | 7.82 to 9.00 |
| COc1ccccc1-c1cc(C)ncc1C(=O)Nc1nc2c(s1)CN(C(=O)C1(c3ccccn3)CC1)C2 (racemic) | 6.82 to 7.30 |

The remaining lines, values ahead:

| pIC50 | Compound |
| --- | --- |
| ≤ 6.05 | COc1ccccc1-c1cc(C)ncc1C(=O)Nc1nc2c(s1)CN(C1CC1)C2=O [Example 352, N-(5-cyclopropyl-4-oxo-5,6-dihydro-4H-pyrrolo[3,4-d]thiazol-2-yl)-4-(2-methoxyphenyl)-6-methylnicotinamide] |
| 7.82 to 9.00 | COc1cn2cncc2cc1-c1cc(C)ncc1C(=O)Nc1nc2c(s1)CN(C(=O)c1cccnc1OC)C2 [Example 124] |
| 7.30 to 7.82 | COc1ccc(C#N)cc1-c1cc(C)ncc1C(=O)Nc1nc2c(s1)CN(C(=O)[C@@H]1CCCO1)C2 [Example 261] |
| 6.82 to 7.30 | COc1ccc(C#N)cc1-c1cc(C)ncc1C(=O)Nc1nc2c(s1)CN(S(=O)(=O)C1COC1)C2 [Example 217] |
| 6.05 to 6.82 | COc1ccc(C#N)cc1-c1cc(C)ncc1C(=O)Nc1nc2c(s1)CN(C(=O)C1CC1(F)F)CC2 (single isomer, unassigned) [Example 210] |
| ≤ 6.05 | COc1cnc(Cl)cc1-c1cc(C)ncc1C(=O)Nc1nc2c(s1)CC(N1CCCCC1)CC2 (racemic) [Example 110] |
| 7.82 to 9.00 | COc1cnc(Cl)cc1-c1cc(C)ncc1C(=O)Nc1nc2c(s1)CN(C(=O)[C@H]1C[C@](O)(C(F)F)C1)C2 [Example 195] |
| 7.82 to 9.00 | COc1ccc(C#N)cc1-c1cc(C)ncc1C(=O)Nc1nc2c(s1)CN(C(=O)C1CC1C)CC2 (mixture of isomers) [Example 212, 4-(5-cyano-2-methoxyphenyl)-6-methyl-N-(5-(2-methylcyclopropane-1-carbonyl)-4,5,6,7-tetrahydrothiazolo[5,4-c]pyridin-2-yl)nicotinamide Mixture of isomers] |
| 7.82 to 9.00 | COc1cnc(Cl)cc1-c1cc(C)ncc1C(=O)Nc1nc2c(s1)CN(C(=O)C1CCOCC1)C2 [Example 184] |
| 6.05 to 6.82 | COc1ccccc1-c1cc(C)ncc1C(=O)Nc1nc2c(s1)CN(C(=O)C1CCNC1=O)C2 (stereo not shown) [Example 345] |
| 7.82 to 9.00 | COc1cnc(Cl)cc1-c1cc(C)ncc1C(=O)Nc1nc2c(s1)CN(C(=O)C1CC(O)(C(F)(F)F)C1)C2 (stereo not shown) [Example 204] |
| 6.05 to 6.82 | COc1ccccc1-c1cc(C)ncc1C(=O)Nc1nc2c(s1)CN(C(=O)c1ccccn1)C2 [Example 323] |
